In patent US6524603B1, “Process and composition for the antiparasitic treatment of the surroundings of animals” (priority 1996, dated 2003):

Test system: darkling beetles (Alphitobius diaperinus)
Test: Poultry house litter treatment, darkling beetle population monitored with 9 traps
Assay type: in vivo
Settings: water-dispersible granules 80% compound (A), 150 g/ha; during the 10th week (end of a rearing cycle)
Method: The treatment took place on the clean litter before the poultry was installed therein. The clean litter was essentially composed of straw.
On the day after the treatment, a group of chicks aged 1 to 2 days was installed in the rearing house at the rate of approximately 7 animals per m^2.
The change in the population of darkling beetles (Alphitobius diaperinus) in the litter was regularly monitored using 9 homogeneously distributed traps. Measurements were carried out each week from the second week after the treatment until rearing was halted.
The total population of darkling beetles in the 9 traps of the treated poultry house varied between 11 and 96 until the 9th week after treatment whereas, in a similar but untreated poultry house, the population of darkling beetles (larvae and adults) oscillated between 1000 and 3000 at each counting point.

**Q.** With `N#Cc1nn(-c2c(Cl)cc(C(F)(F)F)cc2Cl)c(N)c1[S+]([O-])C(F)(F)F` (stereo not shown) [compound (A), 1-[2,6-Cl2-4-CF3phenyl]-3-CN-4-[SO—CF3]-5-NH2pyrazole] as the compound, how does the “control of darkling beetles” value read?
**A.** The value was 86%.
